The text below walks through data of patent US9393295B2, “Nanoparticles for use in pharmaceutical compositions” (Novartis AG, priority 2008, dated 2016).

This data set is described as follows: SMIP encapsulation efficiency (UPLC of pellet and supernatant). The conditions noted are these: RG 502H 2% w/v nanoparticles, theoretical SMIP loading 2% w/w of PLG. It counts as physicochemical. As to the method:
Nanoparticles with a theoretical SMIP loading level of 2% w/w of PLG were prepared for the SMIP encapsulation study. Both water (pH 5.5-6) and Tris EDTA buffer (pH 7-8) were used for the aqueous phases. […] Since, a basic SMIP is being employed here, Tris EDTA buffer was used for the aqueous phase, which maintained the pH of the suspension between 7 and 8.
The encapsulation efficiency was calculated as a ratio of mass of SMIP in the nanoparticles to the mass of SMIP used in the formulation. More particularly, the nanoparticle suspension was aliquoted (1 ml) into 2 vials and centrifuged at 16000 RPM for 30 minutes. The amount of SMIP in the supernatant was determined using an ultra performance liquid chromatography (Waters Acquity UPLC, Milford, Mass., USA) assay. The pellet was washed three times and the amount of SMIP in the pellet was determined after hydrolyzing the pellet with sodium hydroxide, followed by neutralization with hydrochloric acid. Encapsulation efficiency was calculated as ratio of the SMIP in the pellet to the total SMIP content of the suspension. Mass balance was achieved by hydrolyzing 1 ml of the suspension and determining the total SMIP content in 1 ml of the suspension.

In the case of `CCCN(C)c1nc2c(N)nc3ccccc3c2n1CC(C)(C)O` [SMIP], the encapsulation efficiency entry is on record as “greater than 90%” (Tris EDTA buffer (pH 7-8) as aqueous phase) and 40-50% (water (pH 5.5-6) as aqueous phase).
